Laboratory results published in article PMC10287695, “Non-covalent inhibitors of thioredoxin glutathione reductase with schistosomicidal activity in vivo” (Nature Communications, 2023).
Several values for one entry are separate records, joined by “and”; a condition that tells them apart may be missing. Identical values can stand only once. Like-named read-outs stand apart in the source and are kept apart here.

Assays:
[1] = Pharmacokinetics, intraperitoneal administration; format: in vivo, Swiss Webster mice; conditions: for Plasma concentration, single animal / concentration at 0 h / concentration at 0.5 h / concentration at 1 h / concentration at 2 h: IP; for Plasma concentration, single animal / concentration at 0 h / concentration at 0.5 h / concentration at 1 h / concentration at 2 h / concentration at 30 min / concentration at 60 min / concentration at 120 min / plasma concentration: 100 mg/kg; for Plasma concentration, single animal: listed as 1 (8VP70)
Procedure: All the mice were weighed and dosed intraperitoneally accordingly at 100 mg/kg body weight with freshly prepared 1 or 2.
Blood was collected by submandibular puncture into 1 mL Eppendorf tubes, the plasma was separated and stored in −80 °C until used. A 25 µl of mouse plasma was transferred into 1.5 ml centrifuge tube which was spiked with 2.5 µl of internal standard (IS) working standard solution […] to get final IS contraction of 250 ng/ml and the solution was vortexed. An aliquot of 75 µl of methanol/0.15 formic acid was added and gently vortexed for 2 min. The samples then centrifuged for 20 min at 4 °C and 15000 × g. A clear supernatant (50 µl) with added 50 µl mobile phase (reconstitution solution) from each extraction was then transferred into a 250 µl autosampler vial. A 3 µl aliquot of each sample was injected for LC-MSMS analysis.
The total run time of 2 min with an injection volume of 3 μl at column temperature 40 °C were efficient to achieve accepted results.
A Shimadzu LC20AD, Ultra Performance Liquid Chromatography (UPLC) system (Shimadzu Corporation, Kyoto, Japan) equipped with Shimadzu 8040 triple quadrupole (QqQ) mass analyzer (Shimadzu Corporation, Kyoto, Japan) with an electrospray ionization source (ESI) operated in the positive charge mode for the quantification of 1 and 2.

[2] = molecular target: T1, TGR (Schistosoma mansoni, UniProt Q962Y6); format: biochemical, S. mansoni; conditions: for mode of inhibition (NADPH varied): steady state
T1 construct: made in house
T1 sequence (Q962Y6 1-598): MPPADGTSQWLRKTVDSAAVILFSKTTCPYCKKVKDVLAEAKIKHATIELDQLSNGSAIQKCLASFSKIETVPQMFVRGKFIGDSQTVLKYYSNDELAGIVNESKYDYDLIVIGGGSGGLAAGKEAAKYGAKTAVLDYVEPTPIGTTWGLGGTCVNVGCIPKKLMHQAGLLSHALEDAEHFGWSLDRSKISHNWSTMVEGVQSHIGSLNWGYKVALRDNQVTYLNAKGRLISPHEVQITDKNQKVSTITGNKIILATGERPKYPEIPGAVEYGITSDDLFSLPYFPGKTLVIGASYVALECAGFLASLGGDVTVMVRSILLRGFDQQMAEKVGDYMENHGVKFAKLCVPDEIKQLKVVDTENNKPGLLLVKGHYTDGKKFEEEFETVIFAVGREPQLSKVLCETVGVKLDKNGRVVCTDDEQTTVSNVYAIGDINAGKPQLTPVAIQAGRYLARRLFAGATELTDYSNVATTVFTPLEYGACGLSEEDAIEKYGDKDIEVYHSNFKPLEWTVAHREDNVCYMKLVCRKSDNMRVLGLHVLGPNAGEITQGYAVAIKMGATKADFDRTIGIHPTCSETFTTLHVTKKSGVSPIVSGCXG
Procedure: Master mixes with varying concentrations of NADPH were made, each with 2 nM TGR in reaction buffer. Inhibitor (2 µl) was added to a 96 well microplate in triplicate for each NADPH and inhibitor concentration, and 192 µl of the master buffer was added to each well. The reaction incubated for 15 min and 6 µl of 50 mM DTNB was added to each well. The kinetic rate was measured at A412 for 5 min.

[3] = molecular target: T1, TGR; format: biochemical, S. mansoni; conditions: 6 hr preincubation

With `Cc1oc(-c2ccc3c(c2)OCO3)nc1CN[C@@H]1C[C@@H]2C[C@H]([C@H]1C)C2(C)C` [Compound 1] the “Plasma concentration, single animal” value ([1]; 0 Hour) was 0.000 uM (2×) and 0.000 ug/mL (2×), the “Plasma concentration, single animal” value ([1]; 0.5 Hour) was 4.093 uM and 4.069 uM and 1.508 ug/mL and 1.499 ug/mL and the “Plasma concentration, single animal” value ([1]; 1 Hour) was 3.040 uM and 3.641 uM and 1.120 ug/mL and 1.342 ug/mL. For the same compound, the “Plasma concentration, single animal” value ([1]; 2 Hour) was 2.409 uM and 2.589 uM and 0.888 ug/mL and 0.954 ug/mL, the concentration at 0 h ([1]; male, Swiss Webster, mouse, plasma, ip, 0 Hour, read-out: Plasma concentration, Average) was 0 nM and 0 ng/mL and the concentration at 0 h ([1]; male, Swiss Webster, mouse, plasma, ip, 0 Hour, read-out: Plasma concentration, single animal) was 0 nM and 0 ng/mL. The concentration at 0.5 h ([1]; male, Swiss Webster, mouse, plasma, ip, 0.5 Hour, read-out: Plasma concentration, Average) was 4.11 µM and 1510 ng/mL, the concentration at 0.5 h ([1]; male, Swiss Webster, mouse, plasma, ip, 0.5 Hour, read-out: Plasma concentration, single animal) was 4.16 µM and 1530 ng/mL and the concentration at 1 h ([1]; male, Swiss Webster, mouse, plasma, ip, 1 Hour, read-out: Plasma concentration, Average) was 3.28 µM and 1210 ng/mL. The concentration at 1 h ([1]; male, Swiss Webster, mouse, plasma, ip, 1 Hour, read-out: Plasma concentration, single animal) was 3.16 µM and 1160 ng/mL, the concentration at 2 h ([1]; male, Swiss Webster, mouse, plasma, ip, 2 Hour, read-out: Plasma concentration, Average) was 2.35 µM and 865 ng/mL and the concentration at 2 h ([1]; male, Swiss Webster, mouse, plasma, ip, 2 Hour, read-out: Plasma concentration, single animal) was 2.05 µM and 754 ng/mL. The concentration at 30 min ([1]; male, Swiss Webster, mouse, plasma, ip, mice, 100 mg/kg i.p., 30 min) was 4.11 ± 0.047 µM, the concentration at 60 min ([1]; male, Swiss Webster, mouse, plasma, ip, mice, 100 mg/kg i.p., 60 min) was 3.28 ± 0.318 µM and the concentration at 120 min ([1]; male, Swiss Webster, mouse, plasma, ip, mice, 100 mg/kg i.p., 120 min) was 2.35 ± 0.277 µM. The concentration at 30 min ([1]; male, Swiss Webster, mouse, plasma, ip, mice, intraperitoneal, 30 min) was 1510 ± 17 ng/mL, the concentration at 60 min ([1]; male, Swiss Webster, mouse, plasma, ip, mice, intraperitoneal, 60 min) was 1210 ± 117 ng/mL and the concentration at 120 min ([1]; male, Swiss Webster, mouse, plasma, ip, mice, intraperitoneal, 120 min) was 865 ± 102 ng/mL. For the same compound, the Cmax ([1]; male, Swiss Webster, mouse, plasma, ip, mice, 100 mg/kg i.p., at 30 min) was 4.1 µM, the half-life ([1]; male, Swiss Webster, mouse, plasma, ip, mice, 100 mg/kg i.p., estimated from the time points available) was ~1.5 h and the overt toxicity ([1]; mice, 100 mg/kg i.p.) was “no overt toxicity”. The plasma concentration ([1]; mice, 100 mg/kg i.p., 30 min) was 4.1 µM, the plasma concentration ([1]; mice, 100 mg/kg i.p., 60 min) was 3.3 µM and the plasma concentration ([1]; mice, 100 mg/kg i.p., 120 min) was 2.4 µM.

With `Cc1oc(-c2ccccc2)nc1CN[C@@H]1C[C@@H]2C[C@H]([C@H]1C)C2(C)C` [Compound 3] the Vmax ([2]; 70 µM inhibitor, 6 hr preincubation) was 0.0086 ± 0.0003 ΔA412/min, the avg rate ([2]; NADPH 3 µM, 35 µM compound) was 0.003992 and the avg rate ([2]; NADPH 3 µM, 50 µM compound) was 0.003778. It also gave an avg rate ([2]; NADPH 3 µM, 70 µM compound) of 0.003468, an avg rate ([2]; NADPH 10 µM, 35 µM compound) of 0.007014 and an avg rate ([2]; NADPH 10 µM, 50 µM compound) of 0.006219. It also gave an avg rate ([2]; NADPH 10 µM, 70 µM compound) of 0.005582, an avg rate ([2]; NADPH 30 µM, 35 µM compound) of 0.009551 and an avg rate ([2]; NADPH 30 µM, 50 µM compound) of 0.008305. The avg rate ([2]; NADPH 30 µM, 70 µM compound) was 0.007122, the avg rate ([2]; NADPH 100 µM, 35 µM compound) was 0.01022 and the avg rate ([2]; NADPH 100 µM, 50 µM compound) was 0.009229. The avg rate ([2]; NADPH 100 µM, 70 µM compound) was 0.00846, the “mode of inhibition (NADPH varied)” value [2] was “uncompetitive inhibition” and the “mode of inhibition (NADPH varied)” value ([2]; listed as 3 (8VP83)) was “uncompetitive behavior”. The Vmax ([3]; 35 µM inhibitor) was 0.011 ± 0.0002 ΔA412/min and the Vmax ([3]; 50 µM inhibitor) was 0.0096 ± 0.0002 ΔA412/min.
